Source: paper PMC5607274, “An iterative compound screening contest method for identifying target protein inhibitors using the tyrosine-protein kinase Yes” (Scientific Reports, 2017)

These compounds were tested against T1, human recombinant Yes [a.a. 2–543 (end)] (Homo sapiens, UniProt P07947) (assay: ADP-Glo kinase assay, inhibition rates of Yes phosphorylation activity (first and second screening)). Conditions: first screening; mean of n = 4 wells; 10 μmol L−1 compound.
T1 construct: human recombinant Yes [a.a; 2–543 (end)]; purchased BPS Bioscience 40488
Assay type: biochemical
Outline: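 ADP-Glo luminescence measured inhibition of human recombinant Yes (a.a. 2–543) phosphorylation activity. In the first screen, each compound ran in 4 wells and inhibition rates were averaged. The second screen retested hits as compounds dissolved from fresh powder.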

T1 sequence (P07947 2-543): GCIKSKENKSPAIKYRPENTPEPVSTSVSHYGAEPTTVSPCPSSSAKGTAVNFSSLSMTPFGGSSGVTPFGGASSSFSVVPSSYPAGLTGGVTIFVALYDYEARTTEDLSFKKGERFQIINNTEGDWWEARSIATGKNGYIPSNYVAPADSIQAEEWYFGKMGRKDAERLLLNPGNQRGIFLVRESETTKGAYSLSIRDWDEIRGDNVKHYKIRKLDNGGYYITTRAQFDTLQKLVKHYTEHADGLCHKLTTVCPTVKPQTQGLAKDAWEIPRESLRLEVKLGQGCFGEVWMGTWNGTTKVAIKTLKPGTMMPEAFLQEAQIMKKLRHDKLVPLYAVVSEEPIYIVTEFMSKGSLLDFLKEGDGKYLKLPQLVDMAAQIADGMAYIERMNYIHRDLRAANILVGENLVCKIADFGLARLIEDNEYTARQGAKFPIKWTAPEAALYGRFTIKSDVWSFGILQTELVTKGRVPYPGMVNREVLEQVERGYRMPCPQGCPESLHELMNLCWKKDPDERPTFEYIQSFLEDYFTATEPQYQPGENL

Row | Compound | First screening IR (inhibition rate) [%]
1 | Nc1ncnc2sc3c(c12)CCN(C(=O)c1ccc2c(c1)CCC2)C3 [Compound Z168757250] | 4
2 | CS(=O)(=O)c1ccc(N2CCCC2)c(S(C)(=O)=O)c1 [Compound Z168801896] | 13
3 | COc1cc(C)c(Sc2cnc(NC(=O)c3ccc(CCl)cc3)s2)cc1C(=O)N1CCN(C(C)=O)CC1 [Compound Z168829182] | 64
4 | CN(C)c1nc(N)nc(COc2ccc3cc(Br)ccc3c2)n1 [Compound Z168931562] | 5
5 | COc1ccc2ccc(OCc3nc(N)nc(N(C)C)n3)cc2c1 [Compound Z168975100] | 6
6 | CC(C)=CC1C(C(=O)Nc2c(C)cc(C)cc2C)C1(C)C (centres unmarked) [Compound Z169558548] | 2
7 | Cc1cc(C(=O)CCC(=O)Nc2nc3c(s2)CN(C)CC3)c(C)s1 [Compound Z169940730] | 5
8 | O=C1CCCCCN1CCCNC(=O)N1CCN(S(=O)(=O)c2c(Cl)cccc2Cl)CC1 [Compound Z183473124] | -3
9 | O=C(Nc1nc2ccccc2[nH]1)c1cc(-c2ccccc2)n[nH]1 [Compound Z184538526] | 3
10 | O=C(NCC1COc2ccccc2O1)c1cccc(OCc2cn3ccccc3n2)c1 (centres unmarked) [Compound Z185334464] | -12
11 | Cn1ccnc1C(Nc1cnn(Cc2ccccc2)c(=O)c1Cl)c1ccccc1 (centres unmarked) [Compound Z185383718] | 30
12 | CCN(CCNC(=O)c1[nH]c2c(c1C)C(=O)CCC2)c1cccc(C)c1 [Compound Z188949814] | -5
13 | CC(C)(C)C1CCC(C(=O)N2CCC(C(=O)N3CCCCCC3)CC2)CC1 (centres unmarked) [Compound Z191288442] | 7
14 | Cc1noc(C)c1CCC(=O)Nc1nc2cc(C(F)(F)F)ccc2n1Cc1ccco1 [Compound Z193270258] | 0
15 | CN(C)c1nc(N)nc(CSc2nnc(-c3ccccc3)n2C)n1 [Compound Z193722710] | 6
16 | CCC(Sc1n[nH]c(C(C)C)n1)C(=O)Nc1ccc(F)cc1 (centres unmarked) [Compound Z193785446] | -8
17 | Cc1ccc(C)c(C(=O)CCC(=O)NC(C)c2nc3ccccc3[nH]2)c1 (centres unmarked) [Compound Z195395734] | 1
18 | Cc1c(C#N)c(NC(=O)CN2CCN(CC(=O)N3CCCCC3)CC2)n(-c2cccc(F)c2)c1C [Compound Z195846234] | 0
19 | CC(C)CCn1c(CN2CCN(Cc3ccco3)CC2)nc2c1c(=O)[nH]c(=O)n2Cc1ccccc1 [Compound Z195914778] | -3
20 | CC(C)CNC(=O)CN1CCN(c2nc(-c3ccccn3)nc3scc(-c4ccccc4)c23)CC1 [Compound Z196146788] | 2
21 | CC(=O)N1CC=C(c2ccc(Oc3nc(-c4cccnc4)nc4ccccc34)cc2)CC1 [Compound Z196157908] | -13
22 | CN1C/C(=C/c2ccc(SC(F)(F)F)cc2)c2nc3ccccc3c(C(=O)O)c2C1 [Compound Z196352976] | -14
23 | Cc1cn2c(/C=C/C(=O)c3ccc(OCC(=O)N(C)C)cc3)c(C)nc2s1 [Compound Z196370782] | -2

Row | Compound | First screening IR (inhibition rate) [%]
24 | CN(C)c1nc(N)nc(CSCC(=O)Nc2cccc(Cl)c2Cl)n1 [Compound Z197452730] | 4
25 | CN(C)c1nc(N)nc(CSCCOc2ccccc2F)n1 [Compound Z197453168] | 9
26 | CN(C)c1nc(N)nc(CSCCOc2ccc(F)cc2)n1 [Compound Z197453372] | -8
27 | Cc1cc(C(=O)CSCc2nc(N)nc(N(C)C)n2)c(C)n1C1CC1 [Compound Z197454120] | 4
28 | CC(SCc1nc(N)nc(N(C)C)n1)C(=O)Nc1ccc(F)cc1F (centres unmarked) [Compound Z197454476] | -5
29 | CC(SCc1nc(N)nc(N(C)C)n1)C(=O)Nc1cc(F)ccc1F (centres unmarked) [Compound Z197454478] | 15
30 | CC(SCc1nc(N)nc(N(C)C)n1)C(=O)NC1CCCCCC1 (centres unmarked) [Compound Z197454502] | 1
31 | CC(SCc1nc(N)nc(N(C)C)n1)C(=O)Nc1ccc2c(c1)CCC2 (centres unmarked) [Compound Z197454542] | 5
32 | COc1ccc(C)cc1C(C)NC(=O)CCc1nc2ccccc2[nH]1 (centres unmarked) [Compound Z197873940] | 60
33 | Nc1nc(-c2ccccc2)c2cc(C(=O)c3ccccc3O)cnn12 [Compound Z199055452] | 7
34 | CN(Cc1ccc(N2CCOCC2)cc1)Cc1c(O)ccc2ccncc12 [Compound Z199499666] | -18
35 | CS(=O)(=O)c1ccc(N2CCCCCC2)c(S(C)(=O)=O)c1 [Compound Z199538216] | 51
36 | CN(CCO)c1ccc(S(C)(=O)=O)cc1S(C)(=O)=O [Compound Z199538264] | 3
37 | CCCCN(C)c1ccc(S(C)(=O)=O)cc1S(C)(=O)=O [Compound Z199538358] | 8
38 | CCC(NC(=O)c1cc(C)nc2c1cnn2C(C)C)c1ccc(C)cc1 (centres unmarked) [Compound Z203056244] | -5
39 | COc1ccc(S(=O)(=O)N[C@@H](C)C(=O)N2CC=C(c3c(OC)cc(OC)cc3OC)CC2)cc1 [Compound Z203177000] | 0
40 | Cc1cc(C(=O)Nc2ccc(F)c(F)c2)c2cnn(C(C)C)c2n1 [Compound Z203269322] | 39
41 | N#Cc1ccccc1CSCCNc1cc(=O)n2ccccc2n1 [Compound Z203909940] | -8
42 | CC(C)c1cccc(NC(=O)CN(C)CC(=O)N2c3ccccc3NC(=O)CC2C)c1 (centres unmarked) [Compound Z203963094] | -10
43 | O=C(c1ccc(Cl)c(S(=O)(=O)N2CCCCC2)c1)N1CCn2c1nc1ccccc12 [Compound Z204253774] | -4
44 | O=C(Nc1cc(-c2cccc([N+](=O)[O-])c2)sc1C(=O)O)c1cc2c(s1)CCC2 [Compound Z204341220] | -3
45 | O=C(/C=C/c1ccco1)Nc1cc(-c2cccc([N+](=O)[O-])c2)sc1C(=O)O [Compound Z204341820] | -3
46 | O=C(/C=C/c1cccs1)Nc1cc(-c2cccc([N+](=O)[O-])c2)sc1C(=O)O [Compound Z204342158] | 58

Row | Compound | First screening IR (inhibition rate) [%]
47 | O=C(Nc1cc(-c2cccc([N+](=O)[O-])c2)sc1C(=O)O)c1ccc2c(c1)OCCO2 [Compound Z204342356] | -1
48 | O=C(Nc1cc(-c2cccc([N+](=O)[O-])c2)sc1C(=O)O)c1ccc2c(c1)CCC2 [Compound Z204342388] | -1
49 | CC(Sc1nc2ncccn2n1)C(=O)Nc1ccc(Cl)cc1Cl (centres unmarked) [Compound Z207321514] | 5
50 | O=c1[nH]c2ccccc2c2nc(-c3ccc(CSc4nc5ccccc5[nH]4)cc3)nn12 [Compound Z208192218] | 16
51 | Cc1cc(COC(=O)c2cc(-c3cccs3)nc3c2cnn3C(C)C)no1 [Compound Z215601214] | -2
52 | CC(C)n1ncc2c(C(=O)Nc3ccccc3F)cc(-c3ccco3)nc21 [Compound Z216407296] | 37
53 | CC(=O)c1cccc(NC(=O)c2cc(-c3ccco3)nc3c2cnn3C(C)C)c1 [Compound Z216416610] | -1
54 | CC(C)n1ncc2c(C(=O)Nc3ccc(F)cc3Cl)cc(-c3ccco3)nc21 [Compound Z216417110] | 21
55 | CC(C)n1ncc2c(C(=O)Nc3ccc(F)c([N+](=O)[O-])c3)cc(-c3ccco3)nc21 [Compound Z216541962] | -1
56 | CC(C)n1ncc2cc(C(=O)Nc3ccc4[nH]c(=O)[nH]c4c3)cnc21 [Compound Z217430364] | -10
57 | Cc1ccc(C(N)=O)c(OCc2ccc(C#N)cc2F)c1 [Compound Z217923492] | 9
58 | O=C(NCc1ccc(-c2nc3ccccc3s2)o1)c1ccco1 [Compound Z218238558] | 12
59 | COc1cc(NC(=O)COC(=O)c2cc(-c3cccs3)nc3onc(C)c23)cc(OC)c1 [Compound Z218834328] | 6
60 | Cc1ccnc(NC(=O)c2cc(-c3ccc(F)cc3)nc3onc(C)c23)c1 [Compound Z219812624] | -14
61 | Cc1[nH]c(=O)[nH]c(=O)c1CCC(=O)N1CCC(CCc2ccccc2)CC1 [Compound Z219953062] | 4
62 | N#Cc1c(CN2CCN(S(=O)(=O)c3cc(Cl)ccc3Cl)CC2)cn2ccccc12 [Compound Z220381008] | -9
63 | Cc1ccccc1-c1nc(SCc2cn3cc(Cl)ccc3n2)n[nH]1 [Compound Z221422064] | 36
64 | Cc1nn(C)c2nc(-c3ccccc3)cc(C(=O)Nc3ccc4c(c3)OCO4)c12 [Compound Z222976544] | -2
65 | Cl.Fc1c(-c2ccccc2)nc2ccc(Cl)cc2c1-c1ccccc1 [Compound Z223042638] | -12
66 | Cl.Fc1c(-c2ccccc2)nc2ccccc2c1-c1ccccc1 [Compound Z223042658] | 30
67 | CCCCN(C1CCS(=O)(=O)C1)S(=O)(=O)c1ccc(Br)cc1Cl (centres unmarked) [Compound Z223263980] | 5
68 | COc1cc(C(=O)NCCc2ccc(-n3cccn3)cc2)ccc1C [Compound Z223337292] | 3

Same assay, conditions: second screening, dissolved from fresh powder; n = 4; 10 μmol L−1 compound

Row | Compound | Second screening IR (inhibition rate) [%]
69 | COc1cc(C)c(Sc2cnc(NC(=O)c3ccc(CCl)cc3)s2)cc1C(=O)N1CCN(C(C)=O)CC1 [Compound Z168829182] | 37
70 | CS(=O)(=O)c1ccc(N2CCCCCC2)c(S(C)(=O)=O)c1 [Compound Z199538216] | -10
71 | O=C(/C=C/c1cccs1)Nc1cc(-c2cccc([N+](=O)[O-])c2)sc1C(=O)O [Compound Z204342158] | -7
